Measurements from patent publication US12546776B2, “Modulation of protein degradation” (Orionis Biosciences, Inc., priority 2019, dated 2026).

Tests used:
CRBN-ASS1 interaction [1] = biological target: T1, CRBN-ASS1 interaction (Homo sapiens, UniProt Q96SW2); assay: MAPPIT cell microarray screen of ORF library for ligand-induced CRBN neosubstrates; assay type: cell-based; conditions: HEK293T cells, CC-220 at 10 μM, fluorescence reporter read 48 hours later
T1 construct: expressed in transfected cells; host or cells: HEK293T

CRBN-ASS1 interaction [2] = biological target: T1, CRBN-ASS1 interaction; assay: Co-immunoprecipitation of Flag-ASS1 and HA-CRBN in HEK293T cells; assay type: cell-based; conditions: 1 μM and 3 μM, 24 hours
From the text: FIGS. 3A-B Ligand-induced CRBN-ASS1 interaction in living cells—as assessed by co-immunoprecipitation analysis. In this study we examined the ability of Flag-tagged ASS1 (or Flag tagged gp130-ASS1 fusion protein, as identified in the assay described in FIG. 1) and HA-tagged CRBN to interact in living cells upon transfection and expression of each construct in HEK293T cells—in the presence or absence of the CRBN IMiD ligand CC220. Ability of HA-tagged CRBN to interact in response to CC220 with the known CRBN neosubstrate IKZF3 was also examined (with IKZF3 expressed as a Flag-tagged IKZF3 fusion protein). […] Western analysis was performed with an anti-HA antibody to determine extent of immunoprecipitated CRBN in each sample (expected to vary in dependence of CC220 exposure) and an anti-Flag antibody to determine extent of immunoprecipitated Flag-ASS1, Flag-gp130-ASS1 or Flag-IKZF3 in each sample (which would be expected to be the same). […]
In this study we assessed via co-immunoprecipitation of protein complexes the ability of the CRBN ligand CC220 to induce an interaction with ASS1 when expressed in HEK293 cells. […] FLAG-tagged ASS1 was detected using an anti-FLAG Ab (SIGMA) respectively (FIG. 3A, lower panel). […]

ASS1 = ASS1 (Homo sapiens, UniProt P00966+Q96SW2); assay: ASS1 degradation by Western blot in HEK293T cells co-transfected with FLAG-ASS1 and HA-CRBN; assay type: cell-based; conditions: 0.3-30 μM, 24 hours
Description: FIG. 4 Ligand-induced recruitment of ASS1 to CRBN is associated with degradation of ASS1 in living cells. In this study we examined whether ligand-induced recruitment of ASS1 to CRBN could lead to subsequent ASS1 degradation (as triggered by interaction with the CRBN E3 ligase). HEK293 cells were co-transfected with cDNA constructs encoding Flag-tagged ASS1 and HA-tagged CRBN and exposed to increasing concentration of CC220 for 24 hours. Samples were generated for Western blot analysis to determine steady state levels of ASS1 across the different experimental conditions, assessed using and anti-Flag antibody. As shown, loss of ASS1 expression (but not actin control protein expression) was observed specifically in response to CC220 exposure, and in a dose-dependent manner.
In this study we examined whether CC220 CRBN-ligand-induced recruitment of ASS1 to CRBN could lead to subsequent ASS1 degradation (as triggered by interaction with the CRBN E3 ligase). For this analysis, cells were transfected with FLAG-tagged ASS1 and HA-tagged CRBN encoding constructs, and any change in steady state levels of ASS1 in response to incubation of cells with CC220 for a specified time was assessed by Western blot analysis. […] Next, cells were lysed and a fraction of the lysate was analyzed via SDS-PAGE and Western Blot analysis with an anti-FLAG antibody (Sigma). […]

CRBN = biological target: T2, CRBN (Homo sapiens, UniProt Q96SW2); assay: MAPPIT-like ligand competition assay for CRBN binding in HEK293T cells (trimethoprim-lenalidomide hybrid ligand, luciferase reporter); assay type: cell-based; conditions: competition for binding to CRBN
T2 construct: expressed in transfected cells; host or cells: HEK293T

[3] = patients with AL amyloidosis during lenalidomide treatment; cited from earlier work

With O=C1CC[C@H](N2Cc3c(OCc4ccc(CN5CCOCC5)cc4)cccc3C2=O)C(=O)N1 [CC-220] the “ligand-induced ASS1 interaction with CRBN in cell microarray screen (in words)” value (CRBN-ASS1 interaction [1]) was “identified Argininosuccinate Synthase 1 (ASS1) as a novel CC220-induced CRBN neosubstrate”, the “recruitment of ASS1 into CRBN complex by co-immunoprecipitation (in words)” value (CRBN-ASS1 interaction [2]) was “specifically induces the recruitment of ASS1 into a CRBN-CC220 complex” and the “ASS1 steady state levels (Western blot, in words)” value (ASS1) was “decrease in a dose responsive manner”. For the same compound, the “inhibition of hybrid-ligand induced luciferase reporter activation (in words)” value (CRBN) was “specifically inhibit hybrid-ligand induced luciferase reporter activation in a dose dependent manner”.

In the case of Nc1cccc2c1CN(C1CCC(=O)NC1=O)C2=O (stereo not drawn) [LEN, lenalidomide], the “patients showing worsening of kidney function” value [3] is listed as 66% and the “patients with severe kidney dysfunction” value [3] is listed as 32%.
